In brackets after ≈: the same amount, converted by molar mass.
Experiment: physchem
Details: for solubility: water, thermodynamic from solid
Procedure: Analysis of the blend was done and its solubility in water was analyzed (table 3).
All the tablets prepared as shown in table 8 were analyzed in water to check whether there is an enhancement in solubility of the drug when compared to the pure form (table 9).
The compressed tablets prepared according table 13 were analyzed in water to check whether there is any enhancement in solubility of the drug when compared to the pure form (table 14).
All the blends and tablets prepared according to table 15 were analyzed in water for any enhancement in solubility of the drug when compared to the pure form.
The capsules were further analyzed for water solubility of the active ingredient.
The solution was spray dried using a spray drier (Inlet temperature: 55-60° C., Aspirator: 90-100%).

SMILES	solubility	Solubility of AFI/API in water
Cc1ccc(-c2cc(C(F)(F)F)nn2-c2ccc(S(N)(=O)=O)cc2)cc1 [Experiment C-1, Celecoxib]	0.1 µg/mL (≈ 0.262 µM)	–
COc1cc(/C=C/C(=O)CC(=O)/C=C/c2ccc(O)c(OC)c2)ccc1O [Experiment C-4, Curcumin]	–	0.0 µg/mL
O=c1c(O)c(-c2ccc(O)c(O)c2)oc2cc(O)cc(O)c12 [Experiment C-6, Quercetin]	3.6 µg/mL (≈ 11.9 µM)	–
Cc1ccc(S(=O)(=O)NC(=O)NN2CC3CCCC3C2)cc1 (centres unmarked) [Experiment C-8, Gliclazide]	21 µg/mL (≈ 64.9 µM)	–
NC(=O)N1c2ccccc2C=Cc2ccccc21 [Experiment C-9, Carbamazepine]	240 µg/mL (≈ 1020 µM)	–
